From patent publication US20070128217A1 (priority 2003, published 2007)

Assays:
[1] = test system: antibodies in sera from SARS patients (sera 1a, 1b, 2, 6, 37, 62, London, SARS-yellow, SARS-green); type: binding, human; set-up: Binding of serum 6 to linear peptides of protein X1 of SARS-CoV Urbani / Binding of serum 37 to linear peptides of protein X1 of SARS-CoV Urbani / Binding of serum 6 to looped/cyclic peptide (PEPSCAN-ELISA) / Binding of serum 37 to looped/cyclic peptide (PEPSCAN-ELISA) / Binding of serum 37 to looped/cyclic peptides of protein X1 of SARS-CoV Urbani / Binding of serum 6 to linear peptides of protein X2 / Binding of serum 37 to linear peptides of protein X2 / Binding of serum 37 to looped/cyclic peptides of protein X2 of SARS-CoV Urbani / Binding of serum 6 to linear peptides of protein M of SARS-CoV Urbani / Binding of serum 37 to linear peptides of protein M of SARS-CoV Urbani / Binding of serum 6 to looped/cyclic peptides of protein M of SARS-CoV Urbani / Binding of serum 37 to looped/cyclic peptides of protein M of SARS-CoV Urbani / Binding of serum 6 to linear peptides of protein X3 of SARS-CoV Urbani / Binding of serum 37 to linear peptides of protein X3 of SARS-CoV Urbani / Binding of serum 37 to looped/cyclic peptides of protein X3 of SARS-CoV Urbani / Binding of serum 6 to linear peptides of protein X4 of SARS-CoV Urbani / Binding of serum 37 to linear peptides of protein X4 of SARS-CoV Urbani / Binding of serum 37 to looped/cyclic peptides of protein X4 of SARS-CoV Urbani / Binding of serum 6 to linear peptides of protein X5 of SARS-CoV Urbani / Binding of serum 37 to linear peptides of protein X5 of SARS-CoV Urbani / Binding of serum 37 to looped/cyclic peptides of protein X5 of SARS-CoV Urbani / Binding of serum 6 to linear peptides of protein N of SARS-CoV Urbani / Binding of serum 37 to linear peptides of protein N of SARS-CoV Urbani / Binding of serum 6 to linear peptide (PEPSCAN-ELISA) / Binding of serum 1a to looped/cyclic peptides of protein N of SARS-CoV Urbani / Binding of serum 1b to looped/cyclic peptides of protein N of SARS-CoV Urbani / Binding of serum 2 to looped/cyclic peptides of protein N of SARS-CoV Urbani / Binding of serum 6 to looped/cyclic peptides of protein N of SARS-CoV Urbani / Binding of serum 37 to looped/cyclic peptides of protein N of SARS-CoV Urbani / Binding of serum 62 to looped/cyclic peptides of protein N of SARS-CoV Urbani / Binding of serum London to looped/cyclic peptides of protein N of SARS-CoV Urbani / Binding of serum SARS-green to looped/cyclic peptides of protein N of SARS-CoV Urbani: unit not given here
[2] = test system: control sera (pooled serum of ten healthy LUMC hospital workers; commercial negative donor pooled serum from the Dutch bloodbank); type: binding, human; set-up: Binding of Control serum LUMC to linear peptides / Binding of Control serum Blood-bank to linear peptides / Binding of Control serum LUMC to looped peptides / Binding of Control Serum Blood-Bank to Looped peptides / Binding of Control serum LUMC to linear peptides of the protein M of SARS-CoV Urbani / Binding of Control serum Blood-bank to linear peptides of the protein M of SARS-CoV Urbani / Binding of Control serum LUMC to looped peptides of the protein M of SARS-CoV Urbani / Binding of Control Serum Blood-Bank to Looped peptides of the protein M of SARS-CoV Urbani: unit not given here
[3] = test system: rabbit serum obtained by immunizing a rabbit with the SARS-CoV strain Frankfurt 1; type: binding; set-up: Binding of a rabbit serum to linear peptides / Binding of a rabbit serum to looped peptides / Rabbit serum linear peptides / Rabbit serum looped peptides / Binding of a rabbit serum to linear peptides of protein N of SARS-CoV Urbani (Rabbit serum linear peptides) / Binding of a rabbit serum to looped/cyclic peptides of protein N of SARS-CoV Urbani (Rabbit serum looped peptides): unit not given here
[4] = test system: recombinant human anti-SARS-CoV antibody 03-018; type: binding; set-up: Binding of antibody 03-018 to linear peptides of the N protein of SARS-CoV Urbani / Binding of antibody 03-018 to looped/cyclic peptides of the N protein of SARS-CoV Urbani: unit not given here

| Sequence | Binding of serum 1a to linear peptides of protein N of SARS-CoV Urbani [1] | Binding of serum 1a to looped/cyclic peptides of protein N of SARS-CoV Urbani [1] | Binding of serum 1b to linear peptides of protein N of SARS-CoV Urbani [1] | Binding of serum 1b to looped/cyclic peptides of protein N of SARS-CoV Urbani [1] | Binding of serum 2 to linear peptides of protein N of SARS-CoV Urbani [1] | Binding of serum 2 to looped/cyclic peptides of protein N of SARS-CoV Urbani [1] | Binding of serum 6 to linear peptides of protein N of SARS-CoV Urbani [1] | Binding of serum 6 to looped/cyclic peptides of protein N of SARS-CoV Urbani [1] | Binding of serum 37 to linear peptides of protein N of SARS-CoV Urbani [1] | Binding of serum 37 to looped/cyclic peptides of protein N of SARS-CoV Urbani [1] | Binding of serum 62 to linear peptides of protein N of SARS-CoV Urbani [1] | Binding of serum 62 to looped/cyclic peptides of protein N of SARS-CoV Urbani [1] | Binding of serum London to linear peptides of protein N of SARS-CoV Urbani [1] | Binding of serum London to looped/cyclic peptides of protein N of SARS-CoV Urbani [1] | Binding of serum SARS-green to linear peptides of protein N of SARS-CoV Urbani [1] | Binding of serum SARS-green to looped/cyclic peptides of protein N of SARS-CoV Urbani [1] | Binding of serum SARS-yellow to linear peptides of protein N of SARS-CoV Urbani [1] | Binding of serum SARS-yellow to looped/cyclic peptides of protein N of SARS-CoV Urbani [1] | Binding of antibody 03-018 to linear peptides of the N protein of SARS-CoV Urbani [4] | Binding of antibody 03-018 to looped/cyclic peptides of the N protein of SARS-CoV Urbani [4] | further results |
| --- | --- | --- | --- | --- | --- | --- | --- | --- | --- | --- | --- | --- | --- | --- | --- | --- | --- | --- | --- | --- | --- |
| DLIRQGTDYKHWPQI | 0.2 | 0.4 | 0.1 | 0.2 | 0.2 | 0.4 | 0.2 | 0.2 | 0.6 | 0.6 | 0.6 | 0.6 | 0.9 | 0.4 | 0.4 | 0.2 | 0.6 | 0.3 | 0.1 | 0.2 | Binding of Control Serum Blood-Bank to Looped peptides [2]: 0.5; Binding of Control serum Blood-bank to linear peptides [2]: 0.6; Binding of Control serum LUMC to linear peptides [2]: 0.5; Binding of Control serum LUMC to looped peptides [2]: 0.5; Binding of a rabbit serum to linear peptides of protein N of SARS-CoV Urbani (Rabbit serum linear peptides) [3]: 0.0; Binding of a rabbit serum to looped/cyclic peptides of protein N of SARS-CoV Urbani (Rabbit serum looped peptides) [3]: 0.5 |
| DNNQNGGRNGARPKQ | 0.2 | 0.4 | 0.1 | 0.2 | 0.3 | 0.4 | 0.1 | 0.3 | 0.6 | 0.6 | 0.7 | 0.4 | 0.5 | 0.4 | 0.6 | 0.4 | 0.6 | 0.4 | 0.2 | 0.3 | Binding of Control Serum Blood-Bank to Looped peptides [2]: 0.7; Binding of Control serum Blood-bank to linear peptides [2]: 0.8; Binding of Control serum LUMC to linear peptides [2]: 0.6; Binding of Control serum LUMC to looped peptides [2]: 0.6; Binding of a rabbit serum to linear peptides of protein N of SARS-CoV Urbani (Rabbit serum linear peptides) [3]: 0.1; Binding of a rabbit serum to looped/cyclic peptides of protein N of SARS-CoV Urbani (Rabbit serum looped peptides) [3]: 0.4 |
| DNVILLNKHIDAYKT | 0.2 | 0.4 | 0.1 | 0.3 | 0.2 | 0.4 | 0.1 | 0.2 | 0.6 | 0.7 | 0.6 | 0.7 | 0.5 | 0.5 | 0.2 | 0.3 | 0.6 | 0.8 | 0.1 | 0.2 | Control Serum Blood-Bank Looped peptides [2]: 0.7; Control serum Blood-bank linear peptides [2]: 0.5; Control serum LUMC linear peptides [2]: 0.6; Control serum LUMC looped peptides [2]: 0.7; Binding of a rabbit serum to linear peptides of protein N of SARS-CoV Urbani (Rabbit serum linear peptides) [3]: 0.1; Binding of a rabbit serum to looped/cyclic peptides of protein N of SARS-CoV Urbani (Rabbit serum looped peptides) [3]: 0.6 |
| DQIGYYRRATRRVRG | 0.2 | 0.3 | 0.1 | 0.2 | 0.3 | 0.5 | 0.2 | 0.3 | 0.7 | 0.9 | 0.6 | 0.8 | 0.5 | 0.5 | 0.4 | 0.6 | 0.6 | 0.7 | 0.1 | 0.3 | Binding of Control Serum Blood-Bank to Looped peptides [2]: 0.8; Binding of Control serum Blood-bank to linear peptides [2]: 0.8; Binding of Control serum LUMC to linear peptides [2]: 0.7; Binding of Control serum LUMC to looped peptides [2]: 0.7; Recognition of the peptide by the rabbit serum [3]: recognized |
